Here are results for two substances from publication PMC5640650, “NatD promotes lung cancer progression by preventing histone H4 serine phosphorylation to activate Slug expression” (Nature Communications, 2017).

For one data set, the system named is CK2α. The data set can be described thus: Slug expression after CK2α RNA interference, H1299 cells. In kind it is cell-based, human. As to conditions: Scr and NatD-KD H1299 cells, particularly in NatD-KD cells. From the text: Fig. 7 Downregulation of Nt-acetylation of histone H4 facilitates nuclear accumulation of CK2α and its binding to histone H4 in lung cancer cells. a Representative confocal scanning images of CK2α localization in Scr and H1299 cells (left panel). The staining intensity of CK2α was quantified by software ImageJ from NIH (right diagram). Scale bars, 5 μm. […] Equal peptide biotinylated on C terminus is shown by dot blot analysis with streptavidin (middle panel). […] IgG served as a negative control. Results are shown as mean ± s.d. from three independent experiments; two-tailed Student’s t-test, **P < 0.01 compared with the indicated control. g Quantitative real-time PCR analysis of mRNA levels of CK2α and Slug normalized to GAPDH in Scr and NatD-KD H1299 cells in the absence or presence of siRNA to CK2α. NC, siRNA mimics negative control. Data are mean ± s.d. of three independent experiments; Student’s t-test, *P < 0.05, **P < 0.01 compared with the indicated control. h Western blot analysis of indicated proteins from Scr and NatD-KD H1299 cells in the absence or presence of siRNA to CK2α.
siRNA against CK2α and negative control (NC) siRNA were synthesized by RiboBio Co. Ltd (Gaungzhou, China).

The subject of the next data set is H1299 cells. Kind of data set: TGF-β1-induced EMT experiment (morphology), H1299 cells. In kind it is cell-based, human. As to conditions: Scr H1299 cells, TGF-β1. From the text: Fig. 4 Silencing NatD suppresses cancer cell EMT by downregulating Slug. a Representative phase contrast images of Scr and NatD-KD H1299 cells treated with TGF-β1. Data are representative of three independent experiments. Scale bar, 100 μm. b Quantitative real-time PCR analysis of mRNA levels of indicated key EMT-related genes in Scr and NatD-KD H1299 cells normalized to GAPDH in the absence or presence of TGF-β1. Results are shown as mean ± s.d. of three independent experiments. Two-tailed Student’s t-test was used. **P < 0.01 or *P < 0.05 compared with the indicated control. c Western blot analysis of indicated protein levels in Scr and NatD-KD H1299 cells in the absence or presence of TGF-β1. GAPDH served as a loading control. Data are representative of three independent experiments. d Immunofluorescence analysis of Scr and NatD-KD H1299 cells in the absence or presence of TGF-β1 stained for E-cadherin and N-cadherin. […] (bottom panels) Cells were counted in at least four random microscope fields (×100 magnification) for the corresponding assays; migration and invasion are expressed as a percentage of control. […] Two-tailed Student’s t-test was used. **P < 0.01 compared with the indicated control. g Quantitative real-time PCR analysis of the mRNA levels of NatD and indicated key EMT-related genes (normalized to GAPDH) in Scr cells, NatD-KD cells, and NatD-KD + Slug cells. […]

For “CK2α siRNA: siRNA against CK2α: 5′-GAAUUAGAUCCACGUUUCA-3′ (chemistry not given here)”, the “Slug expression after CK2α knockdown” value in the data set with CK2α is recorded as “greatly activated”; in the data set on CK2α (listed as knockdown of CK2α by RNA interference) it was “significantly increased”.
As to “TGF-β1: TGF-β1 used to induce EMT [reference compound]”, the “morphology on TGF-β1 treatment, Scr cells” value in the data set on H1299 cells was “developed a spindle-like appearance and mesenchymal morphology”.
